Measurements reported in patent publication EP0099673A2, “Prostaglandin D derivatives, process for their preparation and compositions containing them” (ONO PHARMACEUTICAL CO., LTD., priority 1982, dated 1984).

System: human myelogenous leukemic cells (HL-60)
Assay: Test on inhibition of proliferation using human myelogenous leukemic cells (HL-60)
Type: cell-based
Settings: for Percentage Inhibition: HL-60, compound at 5 pg/ml, 4 days at 37 C, relative to control (0.1% ethanol); for Surviving Cell Number: HL-60, start 1 x 10^5 cells/ml, compound at 5 pg/ml, stationary culture at 37 C for 4 days, Trypan Blue staining, control 29.4 x 10^4
Protocol: rest on Inhibition of Proliferation Using Human Myeloqenous Leukemic Cells (HL-60)
The test on the inhibition of proliferation of human myelogenous leukemic cells was conducted by a well-known method. The human myelogenous leukemic cells (HL-60) were added to an RPMI culture solution containing 10% bovine fetal serum, the number of cells in the culture solution was adjusted to 1 x 10^5 cells/ml, a solution in ethanol of the compound under test was added to give a concentration of 5 pg/ml, and the mixture was subjected to stationary culture at 37 C for 4 days. As a control, a culture solution to which 0.1% of ethanol had been added was similarly cultured. After the cultivation, the culture solutions were stained by the Trypan Blue staining method and the surviving cell number was measured to determine the percentage inhibition relative to the control.

Molecule | Percentage Inhibition [%] | Surviving Cell Number [cells/ml]
CCCCCC=CC=C1C(=O)C[C@H](O)[C@@H]1CC(=O)CCCCC(=O)OC [(12EZ,14EZ)-(9α)-6,11-Dioxo-9-hydroxyprosta-12,14-dienoic acid methyl ester] | 100 | 0
CCCCCC=CC=C1C(=O)C=C[C@@H]1CC(=O)CCCCC(=O)OC [Methyl (9Z,12EZ,14EZ)-6,11-dioxoprosta-9,12,14-trienoate] | 100 | 0
Methyl (13E)-(9α,15S)-6,11-dioxo-9,15- dihvdroxvprost-13-enoate [6-Keto-PGD1 methyl ester] | 100 | 0
